Data taken from US20230000876A1, “TREATING CANCERS WITH A CYCLIN-DEPENDENT KINASE INHIBITOR” (Nuvation Bio Inc., priority 2021, published 2023).

How the values were obtained:
SK-MEL-31 = assay: Cell viability assay, melanoma cell line SK-MEL-31; assay type: cell-based
Experimental: 4.4.4 Compound Plate (10×) Preparation and Compound Treatment • 10× concentrate compound plate preparation: Add 198 μL of assay medium into each well of the V-bottom plate; then transfer 2 μL of the stock compound solution of each concentration from the stock plate. Add 2 μL of DMSO into the Blank and Control wells. Pipette up and down to mix well. This V-plate is designated as the 10× concentrate compound plate. • For day 0 plate, add 15 μL of the DMSO-medium into the Control wells. The final DMSO concentration was 0.1%. Then directly proceed to cell viability assay. • For assay plate, add 15 μL of the compound-medium of each well from the 10× concentrate compound plate into the cells in 96-well assay plate according to the plate map. Add 15 μL of the DMSO-medium into the Blank and Control wells. The final DMSO concentration was 0.1%. • Return the assay plate into incubator and incubate for 6 days.
The procedures were performed according to the Promega CellTiter-Glo Luminescent Cell Viability Assay Kit manual (Promega-G7573). • The CellTiter-Glo buffer was thawed and equilibrated to room temperature prior to use. • CellTiter-Glo Substrate was equilibrated to room temperature prior to use. • The entire liquid volume of CellTiter-Glo Buffer was transferred into the amber bottle containing CellTiter-Glo Substrate to reconstitute the lyophilized enzyme/substrate mixture. […] Plates were covered with aluminum foil to protect from light. • The contents were mixed for 2 minutes on an orbital shaker to induce cell lysis. • The plate was incubated at room temperature for 20 minutes to stabilize luminescent signal. • Record luminescence on the 2104 EnVision plate reader.
Inhibition rate (IR) of the tested compounds was determined by the following formula: IR (%)=(1−(RLU compound−RLU day0)/(RLU control−RLU day0))*100%. The inhibitions of different dose of compound were calculated in Excel file, and then were used to plot inhibition curves and evaluate related parameters, such as Min (%), Max (%) and GI50. […]

U-118MG xenograft tumors = assay: U-118MG glioma subcutaneous xenograft model; assay type: in vivo, female CB17 SCID mice; details: Group 3: Compound (I) 30 mg/kg PO, QD; PG-D27

Compound: CC(C)N1CCOc2c(F)cc(-c3nc(Nc4ccc(C5CCN(C)CC5)cn4)ncc3F)cc21 [Compound (I), 5-fluoro-4-(8-fluoro-4-isopropyl-3,4-dihydro-2H-benzo[b][1,4]oxazin-6-yl)-N-(5-(1-methylpiperidin-4-yl)pyridin-2-yl)pyrimidin-2-amine]
- Max (%) (SK-MEL-31; inhibition rate): 125.31%
- Min (%) (SK-MEL-31; inhibition rate): −0.53%
- GI50 (SK-MEL-31; read-out: Absolute GI50): 1230 nM
- TGI (U-118MG xenograft tumors): 96.40%
